Test results reported in ChEMBL document CHEMBL1201862, “PubChem BioAssay data set” (2004).
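Growth conditions: 96-well plates. Treatment: test compound, 48 hours, 5 concentrations. Analysis: linear interpolation between bracketing concentrations; unreached endpoints set to highest concentration. The concentration for 50% growth inhibition is given as GI50.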 The source made the active and inactive calls. Rule as the data show it: active = GI50 up to about 1.1 µM and inactive = higher.

Experiments:
Assay in all cases: inhibition of tumour cell growth, NCI panel, 48 h
COLO 205 = test system: COLO 205
HCC 2998 = test system: HCC 2998
HL-60 = test system: HL-60
HOP-62 = test system: HOP-62
HT-29 = test system: HT-29
KM12 = test system: KM12
LOX IMVI = test system: LOX IMVI
NCI/ADR-RES = test system: NCI/ADR-RES
OVCAR-3 = test system: OVCAR-3
OVCAR-5 = test system: OVCAR-5
OVCAR-8 = test system: OVCAR-8
PC-3 = test system: PC-3
RPMI-8226 = test system: RPMI-8226
RXF 393 = test system: RXF 393
SF-539 = test system: SF-539
SK-OV-3 = test system: SK-OV-3
SNB-75 = test system: SNB-75
TK-10 = test system: TK-10
U-251 = test system: U-251
UO-31 = test system: UO-31

SMILES	GI50 (COLO 205)	GI50 (HCC 2998)	GI50 (HL-60)	GI50 (HOP-62)	GI50 (HT-29)	GI50 (KM12)	GI50 (LOX IMVI)	GI50 (NCI/ADR-RES)	GI50 (OVCAR-3)	GI50 (OVCAR-5)	GI50 (OVCAR-8)	GI50 (PC-3)	GI50 (RPMI-8226)	GI50 (RXF 393)	GI50 (SF-539)	GI50 (SK-OV-3)	GI50 (SNB-75)	GI50 (TK-10)	GI50 (U-251)	GI50 (UO-31)
O=C1C=CC2(C=C1)O[C@H](Cc1ccccc1)[C@@H](Cc1ccccc1)O2	1.55 µM (inactive)	2.64 µM (inactive)	1.28 µM (inactive)	1.15 µM (inactive)	0.964 µM (active)	1.69 µM (inactive)	0.223 µM (active)	0.303 µM (active)	0.298 µM (active)	0.281 µM (active)	0.193 µM (active)	0.873 µM (active)	0.177 µM (active)	0.26 µM (active)	0.37 µM (active)	5.85 µM (inactive)	2.91 µM (inactive)	0.506 µM (active)	1.05 µM (active)	0.258 µM (active)
O=c1oc2ccccc2cc1-c1ccc([N+](=O)[O-])cc1	> 100 µM (inactive)	> 100 µM (inactive)	> 100 µM (inactive)	> 100 µM (inactive)	> 100 µM (inactive)	> 100 µM (inactive)	> 100 µM (inactive)	> 100 µM (inactive)	> 100 µM (inactive)	> 100 µM (inactive)	54 µM (inactive)	> 100 µM (inactive)	> 100 µM (inactive)	> 100 µM (inactive)	17.9 µM (inactive)	65.3 µM (inactive)	> 100 µM (inactive)	> 100 µM (inactive)	9.53 µM (inactive)	> 100 µM (inactive)
CC(=O)c1ccccc1NS(=O)(=O)c1ccc2nc(C)n(NS(=O)(=O)c3ccccc3C(C)=O)c(=O)c2c1	> 100 µM (inactive)	> 100 µM (inactive)	> 100 µM (inactive)	> 100 µM (inactive)	> 100 µM (inactive)	> 100 µM (inactive)	> 100 µM (inactive)	> 100 µM (inactive)	> 100 µM (inactive)	> 100 µM (inactive)	> 100 µM (inactive)	> 100 µM (inactive)	> 100 µM (inactive)	> 100 µM (inactive)	> 100 µM (inactive)	> 100 µM (inactive)	> 100 µM (inactive)	> 100 µM (inactive)	> 100 µM (inactive)	37.3 µM (inactive)
CNCCN[C@@H]1c2cc3c(cc2[C@@H](c2cc(OC)c(O)c(OC)c2)[C@H]2C(=O)OC[C@@H]21)OCO3	1.23 µM (inactive)	0.474 µM (active)	< 0.016 µM (active)	0.141 µM (active)	0.494 µM (active)	0.406 µM (active)	0.153 µM (active)	68.2 µM (inactive)	0.968 µM (active)	0.966 µM (active)	0.252 µM (active)	0.649 µM (active)	0.0604 µM (active)	0.229 µM (active)	0.0678 µM (active)	0.264 µM (active)	0.274 µM (active)	1.49 µM (inactive)	0.125 µM (active)	1.32 µM (inactive)
N#CC1(C#N)NC(c2ccccc2)C(C#N)(C#N)NC1c1ccccc1 (centres undefined)	> 100 µM (inactive)	> 100 µM (inactive)	41.1 µM (inactive)	> 100 µM (inactive)	> 100 µM (inactive)	> 100 µM (inactive)	> 100 µM (inactive)	> 100 µM (inactive)	> 100 µM (inactive)	> 100 µM (inactive)	> 100 µM (inactive)	> 100 µM (inactive)	> 100 µM (inactive)	> 100 µM (inactive)	> 100 µM (inactive)	> 100 µM (inactive)	> 100 µM (inactive)	> 100 µM (inactive)	> 100 µM (inactive)	> 100 µM (inactive)
O=C(/C=C/c1ccc(OCc2ccccc2)c(OCc2ccccc2)c1)OCc1ccccc1	> 100 µM (inactive)	> 100 µM (inactive)	> 100 µM (inactive)	> 100 µM (inactive)	> 100 µM (inactive)	> 100 µM (inactive)	> 100 µM (inactive)	> 100 µM (inactive)	> 100 µM (inactive)	> 100 µM (inactive)	> 100 µM (inactive)	> 100 µM (inactive)	> 100 µM (inactive)	> 100 µM (inactive)	> 100 µM (inactive)	> 100 µM (inactive)	> 100 µM (inactive)	> 100 µM (inactive)	> 100 µM (inactive)	> 100 µM (inactive)
O=C1C(=O)C(CCCO)(CCCO)CCCCCCCCC1(CCCO)CCCO	> 100 µM (inactive)	> 100 µM (inactive)	12.4 µM (inactive)	> 100 µM (inactive)	67 µM (inactive)	78.5 µM (inactive)	64.7 µM (inactive)	> 100 µM (inactive)	32.2 µM (inactive)	> 100 µM (inactive)	> 100 µM (inactive)	55.3 µM (inactive)	< 0.01 µM (active)	17.3 µM (inactive)	80.4 µM (inactive)	> 100 µM (inactive)	50.1 µM (inactive)	87.3 µM (inactive)	66.5 µM (inactive)	37.4 µM (inactive)
COc1ccc(-c2cc(-c3ccc(Nc4ccnc5cc(Cl)ccc45)cc3)[nH]c(=O)c2C#N)cc1	> 100 µM (inactive)	> 100 µM (inactive)	> 100 µM (inactive)	80 µM (inactive)	–	2.86 µM (inactive)	> 100 µM (inactive)	> 100 µM (inactive)	> 100 µM (inactive)	> 100 µM (inactive)	> 100 µM (inactive)	> 100 µM (inactive)	> 100 µM (inactive)	> 100 µM (inactive)	> 100 µM (inactive)	> 100 µM (inactive)	> 100 µM (inactive)	72.4 µM (inactive)	> 100 µM (inactive)	> 100 µM (inactive)
CN(C)CCCCN1c2ccccc2Sc2ccc(C(=O)c3ccccc3)cc21	1.64 µM (inactive)	1.83 µM (inactive)	1.85 µM (inactive)	3.13 µM (inactive)	1.89 µM (inactive)	2.02 µM (inactive)	1.8 µM (inactive)	4.39 µM (inactive)	3.98 µM (inactive)	5.64 µM (inactive)	3.33 µM (inactive)	2.32 µM (inactive)	2.24 µM (inactive)	1.22 µM (inactive)	3.29 µM (inactive)	13 µM (inactive)	2.34 µM (inactive)	3.8 µM (inactive)	2.41 µM (inactive)	2.6 µM (inactive)
c1cc(C[S+]2CCCC2)sc1C[S+]1CCCC1	> 100 µM (inactive)	> 100 µM (inactive)	> 100 µM (inactive)	> 100 µM (inactive)	> 100 µM (inactive)	> 100 µM (inactive)	> 100 µM (inactive)	> 100 µM (inactive)	> 100 µM (inactive)	> 100 µM (inactive)	> 100 µM (inactive)	> 100 µM (inactive)	> 100 µM (inactive)	> 100 µM (inactive)	> 100 µM (inactive)	> 100 µM (inactive)	> 100 µM (inactive)	> 100 µM (inactive)	> 100 µM (inactive)	> 100 µM (inactive)
CCC(=O)NCCc1c2c3c(ccnc3c3ncsc13)-c1ccccc1N2 [KUANONIAMINE C]	1.45 µM (inactive)	0.692 µM (active)	0.845 µM (active)	2.94 µM (inactive)	0.541 µM (active)	2.33 µM (inactive)	1.05 µM (active)	4.99 µM (inactive)	10.5 µM (inactive)	8.17 µM (inactive)	3.28 µM (inactive)	1.41 µM (inactive)	0.401 µM (active)	4.16 µM (inactive)	1.06 µM (active)	12.2 µM (inactive)	6.89 µM (inactive)	6.32 µM (inactive)	1.41 µM (inactive)	0.53 µM (active)
